Data from US12240854B2, “TRAF 6 inhibitors” (Helmholtz Zentrum München - Deutsches Forschungszentrum für …, priority 2018, dated 2025).
“Also recorded” adds a separate entry of the source.

molecular target: T1, TRAF6-Ubc13 binding in HEK293T cells (Homo sapiens, UniProt Q9Y4K3); experiment: Co-immunoprecipitation of HA-TRAF6 and Ubc13 in HEK 293T cells; assay type: cell-based; conditions: not given
T1 construct: RING-Zincfinger1 (RZ1) domain (residues 50-159) of human TRAF6 wildtype; expressed in transfected cells; host or cells: HEK 293T
T1 sequence (Q9Y4K3 50-159): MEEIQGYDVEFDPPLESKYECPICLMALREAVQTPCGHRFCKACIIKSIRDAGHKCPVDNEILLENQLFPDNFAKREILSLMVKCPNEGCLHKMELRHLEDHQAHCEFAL
Method: To study the interaction of TRAF6 and Ubc13 in cells, 1×10^6 293T cells were seeded and after 18 hours cells were transfected with 1 μg pEF-HA empty or pEF-HA-TRAF6 RZ1 plasmid using the X-tremeGENE HP DNA transfection reagent (Roche). 6 hours upon transfection, cells were treated with compound or DMSO. After 42 hours further incubation, cells were harvested in Co-IP lysis buffer and HA-TRAF6 was immunoprecipitated with anti-HA affinity matrix (Roche). Binding of Ubc13 to TRAF6 was examined in Western Blot analysis.

Row | SMILES | interaction of endogenous Ubc13 with HA-tagged TRAF6 (co-immunoprecipitation)
1 | Cc1nn(-c2ccc3nnc(C)n3n2)c(C)c1CCC(=O)N1CCN(Cc2ccccc2)CC1 [HZM06-1, 1-(4-benzylpiperazin-1-yl)-3-(3,5-dimethyl-1-(3-methyl-[1,2,4]triazolo[4,3-b]pyridazin-6-yl)-1H-pyrazol-4-yl)propan-1-one] | also active in cells
2 | COc1cccc(CN2CCN(C(=O)CCc3c(C)nn(-c4ccc5nnc(C)n5n4)c3C)CC2)c1 [HZM06-2, 1-(4-(3-methoxybenzyl)piperazin-1-yl)-3-(3,5-dimethyl-1-(3-methyl-[1,2,4]triazolo[4,3-b]pyridazin-6-yl)-1H-pyrazol-4-yl)propan-1-one] | also active in cells
3 | Cc1nn(-c2ccc3nnc(C)n3n2)c(C)c1CCC(=O)N1CCN(Cc2ccc(F)cc2)CC1 [HZM06-3, 1-(4-(4-fluorobenzyl)piperazin-1-yl)-3-(3,5-dimethyl-1-(3-methyl-[1,2,4]triazolo[4,3-b]pyridazin-6-yl)-1H-pyrazol-4-yl)propan-1-one] | also active in cells
4 | Cc1nn(-c2ccc3nnc(C)n3n2)c(C)c1CCC(=O)N1CCC(c2ccccc2)CC1 [HZM06-6, 3-(3,5-dimethyl-1-(3-methyl-[1,2,4]triazolo[4,3-b]pyridazin-6-yl)-1H-pyrazol-4-yl)-1-(4-phenylpiperidin-1-yl)propan-1-one] | also active in cells
5 | Cc1nn(-c2ccc3nnc(C)n3n2)c(C)c1CCC(=O)N1CCC(c2ccccn2)CC1 [HZM06-7, 3-(3,5-dimethyl-1-(3-methyl-[1,2,4]triazolo[4,3-b]pyridazin-6-yl)-1H-pyrazol-4-yl)-1-(4-(pyridin-2-yl)piperidin-1-yl)propan-1-one] | also active in cells; also recorded: most active analogs

same assay, conditions: listed as HZM06-07

Row | SMILES | interaction of endogenous Ubc13 with HA-tagged TRAF6 (co-immunoprecipitation)
6 | Cc1nn(-c2ccc3nnc(C)n3n2)c(C)c1CCC(=O)N1CCC(c2ccccn2)CC1 [HZM06-7, 3-(3,5-dimethyl-1-(3-methyl-[1,2,4]triazolo[4,3-b]pyridazin-6-yl)-1H-pyrazol-4-yl)-1-(4-(pyridin-2-yl)piperidin-1-yl)propan-1-one] | demonstrated inhibition of TRAF6-Ubc13 binding

molecular target: T2, TRAF6WTStrepII-Ubc13FH interaction (Homo sapiens, UniProt Q9Y4K3); experiment: ALPHAScreen TRAF6-Ubc13 interaction assay; assay type: binding; conditions: not given
T2 construct: RING-Zincfinger1 (RZ1) domain (residues 50-159) of human TRAF6 wildtype; made in house; host or cells: E. coli BL21 codon plus RIPL
T2 sequence (Q9Y4K3 with tags, fused parts or gaps): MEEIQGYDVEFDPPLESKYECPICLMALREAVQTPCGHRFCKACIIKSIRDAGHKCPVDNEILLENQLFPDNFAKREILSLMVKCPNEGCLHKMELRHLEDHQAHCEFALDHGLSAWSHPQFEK
Excerpt: In order to identify small molecules that specifically target the RZ1 domain of TRAF6 and thereby prevent its binding to Ubc13, the ALPHAScreen technology (PerkinElmer) was chosen to detect TRAF6WTStrepII-Ubc13FH interaction in High-Throughput-Screenings as well as Structure Activity Relationship (SAR) analysis.
For performance of an automated ALPHAScreen assay, all following components were pre-diluted in ALPHAScreen buffer (1×PBS, 0.5% BSA, 0.01% Tween-20). First, the TRAF6 protein (end concentration 100 nM, 30 μL volume) was added to 384-well-opti-plates involving the MultiFlo dispensing system (BioTek) followed by transfer of the compounds via the Sciclone G3 transfer station (PerkinElmer). After addition of Ubc13FH (end concentration 75 nM, 10 μL volume) with the MultiFlo system and incubation for one hour at room temperature, both beads (Strep-Tactin Alpha Donor beads and Nickel-Chelate acceptor beads; end concentrations 4 μg each, 10 μL volume each) were mixed and added using the MultiFlo system in subdued light. Read-out of the plates occurred after another hour of incubation at room temperature. Statistical parameters including the coefficient of variation, Z′ factor and signal window were calculated to determine the quality of the HTS campaign. To evaluate the efficacy of the compounds, ALPHAScreen units of compound-treated samples were referred to DMSO control treated samples. Thereby, the TRAF6D57K mutant served as the control for minimum signal and was included on every plate of the screening. Compounds that inhibited TRAF6WTStrepII-Ubc13FH by more than 25% were considered as actives. After elimination of ALPHAScreen frequent hitter compounds and His-tag frequent hitters (Schorpp, K., I. Rothenaigner, E. Salmina, et al., Identification of Small-Molecule Frequent Hitters from AlphaScreen High-Throughput Screens. J Biomol Screen, 2014. 19(5): p. 715-26), 178 compounds were defined as primary hits and were subsequently tested in five-point serial dilution assays (2.5-40 μM) in TRAF6WTStrepII-Ubc13FH ALPHAScreen experiments. Only compounds with dose-dependent effects on TRAF6WTStrepII-Ubc13FH (n=27) were taken for further research. For analog testing, all compounds were analyzed in ten-point titration (0.2-100 μM) in TRAF6WTStrepII-Ubc13FH ALPHAScreen experiments. In parallel, the compounds were tested in the ALPHAScreen TruHits Kit (PerkinElmer) to rule out unspecific interference with the ALPHAScreen technology.

Row | SMILES | inhibition of TRAF6-Ubc13 interaction in ALPHAScreen (in words)
7 | Cc1nn(-c2ccc3nnc(C)n3n2)c(C)c1CCC(=O)N1CCN(c2ccccc2)CC1 [Example C25, 3-(3,5-dimethyl-1-(3-methyl-[1,2,4]triazolo[4,3-b]pyridazin-6-yl)-1H-pyrazol-4-yl)-1-(4-phenylpiperazin-1-yl)propan-1-one] | promising hit; also recorded: best results in in-vitro and cell-based assays

same assay, conditions: TRAF6 100 nM, Ubc13FH 75 nM; class symbols; read-out: IC50 Alphascreen (inhibition of TRAF6-UBC13 interaction)

Row | IC50 [µM] | inhibition at 100 µM [%] | SMILES
8 | ≤ 3 | – | Cc1nn(-c2ccc3nnc(C)n3n2)c(C)c1CCC(=O)N1CCN(Cc2cccc(C(F)(F)F)c2)CC1 [Example 159]
9 | ≤ 3 | – | Cc1ccccc1CN1CCN(C(=O)CCc2c(C)nn(-c3ccc4nnc(C)n4n3)c2C)CC1 [Example 160]
10 | ≤ 3 | – | Cc1nn(-c2ccc3nnc(C)n3n2)c(C)c1CCC(=O)N1CCN(Cc2cccc(C3CC3)c2)CC1 [Example 161]
11 | ≤ 10 | – | Cc1nn(-c2ccc3nnc(C)n3n2)c(C)c1CCC(=O)N1CCN(Cc2ccc(F)c(C(F)(F)F)c2)CC1 [Example 162]
12 | ≤ 3 | – | Cc1nn(-c2ccc3nnc(C)n3n2)c(C)c1CCC(=O)N1CCN(Cc2cccc(Br)c2)CC1 [Example 163]
13 | ≤ 3 | – | Cc1nn(-c2ccc3nnc(C)n3n2)c(C)c1CCC(=O)N1CCN(Cc2ccc(-c3nnn[nH]3)cc2)CC1 [Example 164]
14 | ≤ 10 | – | Cc1nn(-c2ccc3nnc(C)n3n2)c(C)c1CCC(=O)N1CCN(Cc2ccc3cc[nH]c3c2)CC1 [Example 165]
15 | ≤ 10 | – | Cc1nn(-c2ccc3nnc(C)n3n2)c(C)c1CCC(=O)N1CCN(Cc2ccc3oc(=O)ccc3c2)CC1 [Example 166]
16 | – | ≥ 30 | Cc1nn(-c2ccc3nnc(C)n3n2)c(C)c1CCC(=O)NC1CCN(c2ccccc2)CC1 [Example 167]
17 | ≤ 10 | – | Cc1nn(-c2ccc3nnc(C)n3n2)c(C)c1CCC(=O)N1CCC(Oc2ccccc2)CC1 [Example 168]
18 | ≤ 10 | – | Cc1nn(-c2ccc3nnc(C)n3n2)c(C)c1CCC(=O)N1CCN(Cc2ccc(-c3nnn[nH]3)cc2F)CC1 [Example 169]
19 | ≤ 3 | – | Cc1nn(-c2ccc3nnc(C(F)(F)F)n3n2)c(C)c1CCC(=O)N1CCN(Cc2ccc(-c3nnn[nH]3)cc2F)CC1 [Example 170]
20 | ≤ 3 | – | Cc1nn(-c2ccc3nnc(C)n3n2)c(C)c1CCC(=O)N1CCN(Cc2cc(-c3nnn[nH]3)ccc2Cl)CC1 [Example 171]
21 | ≤ 3 | – | Cc1nn(-c2ccc3nnc(C(F)(F)F)n3n2)c(C)c1CCC(=O)N1CCN(Cc2cc(-c3nnn[nH]3)ccc2Cl)CC1 [Example 172]
22 | ≤ 3 | – | Cc1nn(-c2ccc3nnc(C)n3n2)c(C)c1CCC(=O)N1CCN(Cc2ccc(-c3nnn[nH]3)cc2Cl)CC1 [Example 173]
23 | ≤ 3 | – | Cc1nn(-c2ccc3nnc(C(F)(F)F)n3n2)c(C)c1CCC(=O)N1CCN(Cc2ccc(-c3nnn[nH]3)cc2Cl)CC1 [Example 174]
24 | ≤ 3 | – | Cc1nn(-c2ccc3nnc(C)n3n2)c(C)c1CCC(=O)N1CCN(Cc2cccc(-c3nnn[nH]3)c2Cl)CC1 [Example 175]

Row | IC50 [µM] | inhibition at 100 µM [%] | SMILES
25 | ≤ 3 | – | Cc1nn(-c2ccc3nnc(C(F)(F)F)n3n2)c(C)c1CCC(=O)N1CCN(Cc2cccc(-c3nnn[nH]3)c2Cl)CC1 [Example 176]
26 | ≤ 3 | – | Cc1nn(-c2ccc3nnc(C)n3n2)c(C)c1CCC(=O)N1CCN(Cc2cc(F)cc(-c3nnn[nH]3)c2)CC1 [Example 177]
27 | ≤ 3 | – | Cc1nn(-c2ccc3nnc(C(F)(F)F)n3n2)c(C)c1CCC(=O)N1CCN(Cc2cc(F)cc(-c3nnn[nH]3)c2)CC1 [Example 178]
28 | ≤ 3 | – | Cc1nn(-c2ccc3nnc(C)n3n2)c(C)c1CCC(=O)N1CCN(Cc2cccc(-c3nnn[nH]3)c2C)CC1 [Example 179]
29 | ≤ 10 | – | Cc1nn(-c2ccc3nnc(C(F)(F)F)n3n2)c(C)c1CCC(=O)N1CCN(Cc2cccc(-c3nnn[nH]3)c2C)CC1 [Example 180]
30 | ≤ 30 | – | Cc1nn(-c2ccc3nnc(C(F)(F)F)n3n2)c(C)c1CCC(=O)N1CCN(Cc2cc(F)cc(C#N)c2)CC1 [Example 181]
31 | ≤ 10 | – | Cc1nn(-c2ccc3nnc(C)n3n2)c(C)c1CCC(=O)N1CCN(Cc2ccc(C#N)cc2F)CC1 [Example 182]
32 | ≤ 3 | – | Cc1nn(-c2ccc3nnc(C(F)(F)F)n3n2)c(C)c1CCC(=O)N1CCN(Cc2cc(C#N)ccc2Cl)CC1 [Example 183]
33 | ≤ 10 | – | Cc1nn(-c2ccc3nnc(C)n3n2)c(C)c1CCC(=O)N1CCN(Cc2cccc(C#N)c2Cl)CC1 [Example 184]
34 | ≤ 3 | – | Cc1nn(-c2ccc3nnc(C)n3n2)c(C)c1CCC(=O)N1CCN(Cc2cccc(C#N)c2C)CC1 [Example 185]
35 | ≤ 10 | – | Cc1nn(-c2ccc3nnc(C(F)(F)F)n3n2)c(C)c1CCC(=O)N1CCN(Cc2cccc(C#N)c2C)CC1 [Example 186]
36 | ≤ 10 | – | Cc1nn(-c2ccc3nnc(C(F)(F)F)n3n2)c(C)c1CCC(=O)N1CCN(Cc2cccc(C#N)c2Cl)CC1 [Example 187]
37 | ≤ 30 | – | Cc1nn(-c2ccc3nnc(C)n3n2)c(C)c1CCC(=O)N1CCN(Cc2ccc(C#N)cc2Cl)CC1 [Example 188]
38 | ≤ 30 | – | Cc1nn(-c2ccc3nnc(C(F)(F)F)n3n2)c(C)c1CCC(=O)N1CCN(Cc2ccc(C#N)cc2Cl)CC1 [Example 189]
39 | ≤ 3 | – | Cc1nn(-c2ccc3nnc(C(F)(F)F)n3n2)c(C)c1CCC(=O)N1CCN(Cc2ccc(C#N)cc2F)CC1 [Example 190]
40 | ≤ 10 | – | Cc1nn(-c2ccc3nnc(C)n3n2)c(C)c1CCC(=O)N1CCN(Cc2cc(C#N)ccc2Cl)CC1 [Example 191]
